The values that follow come from patent US20240408169A1 (priority 2023, published 2024).

Test [1] has as its target T1, CyclinA2/CDK2 (Homo sapiens, UniProt P20248).
T1 construct: purchased CRELUX Protein Services
Put plainly: Fluorescence Polarization (FP) competitive binding assay, Cyclin A2/Cdk2.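 Also: plates equilibrated two hours at room temperature before polarization reading, IC50 fitted from eight-concentration compound titration curves.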 As to conditions: 8 nM Cyclin A2/Cdk2, 2 nM FAM probe; average of 2-3 independent experiments; read-out: Cyclin A FP IC50.

Test [2] has as its target T2, CyclinB1/CDK1 (Homo sapiens, UniProt P14635).
T2 construct: purchased Eurofins, discovery 14-450
Briefly: Fluorescence Polarization (FP) competitive binding assay, Cyclin B1/Cdk1.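 Also: fluorescence polarization read after equilibration at room temperature, with IC50 taken from serially diluted dose-response curves.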 As to conditions: 10 nM Cyclin B1/Cdk1, 2 nM FAM probe; average of 2-3 independent experiments; read-out: Cyclin B FP IC50.

The target of test [3] is T3, CyclinE1/CDK2 (Homo sapiens, UniProt P24864).
T3 construct: purchased Eurofins, discovery 14-475
Put plainly: Fluorescence Polarization (FP) competitive binding assay, Cyclin E1/Cdk2.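 Also: readings taken after two-hour equilibration at room temperature in HEPES buffer with NaCl, DTT, NP-40 and BSA, IC50 fitted from eight-concentration serial dilution series.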 As to conditions: 10 nM Cyclin E1/Cdk2, 2 nM FAM probe; average of 2-3 independent experiments; read-out: Cyclin E FP IC50.

Test [4] relates to NCI-H1048 cells. Briefly: MTT proliferation assay, NCI-H1048.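 Also: Dose-response in 96-well plates over 8 or 10 concentration points, with exposure spanning 3-4 cell doublings.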 In kind it is cell-based. As to conditions: 5 days compound exposure, 1:3 serial dilution starting at 10 μM.
Test [5] concerns OVCAR3 cells. Put plainly: MTT proliferation assay, OVCAR3.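 Also: compound given as an 8- or 10-point series, one day after plating, with exposure covering roughly 3-4 cell doublings.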 In kind it is cell-based. The settings on record: 5 days compound exposure, 1:3 serial dilution starting at 10 μM.

*1 amine or outer side, *2 acyl side, *3 side chain or, on linkers, in order; H or OH if unused. Where a SMILES comes first, the peptide text is derived from it. Bridges are numbered along the chain shown (N, C = ends). [ ]: non-standard residue; d: D form. The star is where a group is joined. X128 = CC(C)C(=O)N1C2C=C(c3ccc(F)cc3C[C@@H](C(=O)[*:2])N(C)[*:1])CC1COC2; X122 = CN([C@@H](Cc1cc(Cl)ccc1C1=CCN(C(=O)C(C)(C)C)CC1)C(=O)[*:2])[*:1]; X150 = CC(C)C(=O)N1C2C=C(c3ccc(F)cc3C[C@@H](C(=O)[*:2])N(C)[*:1])CC1CC2; NMePhe(5-Cl,2-O(2-Pym)) = CN[C@@H](Cc1cc(Cl)ccc1Oc1ncccn1)C(=O)O; X26 = CN([C@@H](Cc1cc(F)ccc1-c1cnn(C2CC2)c1)C(=O)[*:2])[*:1]; NMehhhLys(Me) = CN([C@@H](CCCCCCCN(C)[*:3])C(=O)[*:2])[*:1]; X180 = CN([C@@H](Cc1cc(F)ccc1-c1cnn2c1CCC2)C(=O)[*:2])[*:1]; X207 = CN([C@@H](Cc1cc(F)ccc1-c1cn(C)cn1)C(=O)[*:2])[*:1]; X44 = Cc1nnc(-c2ccc(Cl)cc2C[C@@H](C(=O)[*:2])N(C)[*:1])o1; NMe(hhhLys) = CN([C@@H](CCCCCCCN[*:3])C(=O)[*:2])[*:1]; Cyclobutanecarbonyl(1-CF3) = O=C(C1(C(F)(F)F)CCC1)*; cBuCO(3,3-F2-1-CF3) = O=C(C1(C(F)(F)F)CC(F)(F)C1)*; Pro(trans-4-F) = O=C(O)[C@@H]1C[C@@H](F)CN1; X27 = O=C([C@]1(C(F)(F)F)CCCCO1)*; Gly(cPr) = N[C@H](C(=O)O)C1CC1

As for `CC(C)C[C@@H]1NC(=O)[C@@H](N(C)C(=O)[C@@H](NC(=O)[C@@H]2C[C@@H](F)CN2C(=O)C2(C(F)(F)F)CC(F)(F)C2)C2CC2)CCCCCCCN(C)C(=O)[C@H](Cc2cc(Cl)ccc2C2=CCN(C(=O)C(C)(C)C)CC2)N(C)C1=O` [Example 144] ({cBuCO(3,3-F2-1-CF3)}-[Pro(trans-4-F)][Gly(cPr)][NMehhhLys(Me)]L[X122]; lactam 3-C), the values for the IC50 in test [1], in test [2] and in test [3] were 0.02 µM, 0.02 µM and 0.84 µM, respectively. Besides, the GI50 in test [4] and in test [5] was 0.07 µM each time.
As for `CC(C)C[C@@H]1NC(=O)[C@@H](N(C)C(=O)[C@@H](NC(=O)[C@@H]2C[C@@H](F)CN2C(=O)[C@]2(C(F)(F)F)CCCCO2)C2CC2)CCCCCCCN(C)C(=O)[C@H](Cc2cc(F)ccc2-c2cnn(C3CC3)c2)N(C)C1=O` [Example 146] (X27-[Pro(trans-4-F)][Gly(cPr)][NMehhhLys(Me)]L[X26]; lactam 3-C), the IC50 in test [1] was 0.03 µM; in test [2], 0.02 µM; in test [3] it was 0.1 µM. Further, the GI50 in test [4] and in test [5] was 0.02 µM throughout.
With `CC(C)C[C@@H]1NC(=O)[C@@H](N(C)C(=O)[C@@H](NC(=O)[C@@H]2C[C@@H](F)CN2C(=O)C2(C(F)(F)F)CC(F)(F)C2)C2CC2)CCCCCCCN(C)C(=O)[C@H](Cc2cc(F)ccc2-c2cnn3c2CCC3)N(C)C1=O` [Example 148] ({cBuCO(3,3-F2-1-CF3)}-[Pro(trans-4-F)][Gly(cPr)][NMehhhLys(Me)]L[X180]; lactam 3-C), the IC50 stood at 0.03 µM in test [1], 0.02 µM in test [2] and 0.31 µM in test [3]. Also, the GI50 in test [4] and in test [5] was 0.01 µM in each case.
Consider `CC(=O)N1C2C=C(c3ccc(F)cc3C[C@H]3C(=O)N(C)CCCCCCC[C@H](N(C)C(=O)[C@@H](NC(=O)[C@@H]4C[C@@H](F)CN4C(=O)C4(C(F)(F)F)CC(F)(F)C4)C4CC4)C(=O)N[C@@H](CC(C)C)C(=O)N3C)CC1CC2` (some centres unmarked) [Example 149], for which the IC50 in test [1] was found to be 0.02 µM; in test [2], 0.02 µM; in test [3], 0.56 µM. Further, the GI50 in test [4] was determined as 0.03 µM; in test [5], 0.04 µM.
`CC(C)C[C@@H]1NC(=O)[C@@H](N(C)C(=O)[C@@H](NC(=O)[C@@H]2C[C@@H](F)CN2C(=O)C2(C(F)(F)F)CC(F)(F)C2)C2CC2)CCCCCCCN(C)C(=O)[C@H](Cc2cc(F)ccc2C2=CC3CCC(C2)N3C(=O)C(C)C)N(C)C1=O` (stereo partly drawn) [Example 150] ({cBuCO(3,3-F2-1-CF3)}-[Pro(trans-4-F)][Gly(cPr)][NMehhhLys(Me)]L[X150]; lactam 3-C): the figures for the IC50 in test [1], in test [2] and in test [3] were 0.02 µM, 0.02 µM and 0.21 µM, respectively. In addition, the GI50 was 0.02 µM in test [4] and 0.04 µM in test [5].
For the compound `CC(C)C[C@@H]1NC(=O)[C@@H](N(C)C(=O)[C@@H](NC(=O)[C@@H]2C[C@@H](F)CN2C(=O)C2(C(F)(F)F)CC(F)(F)C2)C2CC2)CCCCCCCN(C)C(=O)[C@H](Cc2cc(F)ccc2C2=CC3COCC(C2)N3C(=O)C(C)C)N(C)C1=O` (stereo partly drawn) [Example 151] ({cBuCO(3,3-F2-1-CF3)}-[Pro(trans-4-F)][Gly(cPr)][NMehhhLys(Me)]L[X128]; lactam 3-C), the IC50 in test [1] was determined as 0.02 µM; in test [2], 0.02 µM; in test [3], 0.22 µM. In addition, the GI50 in test [4] and in test [5] was 0.01 µM each time.
Turning to `CC(C)C[C@@H]1NC(=O)[C@@H](N(C)C(=O)[C@@H](NC(=O)[C@@H]2C[C@@H](F)CN2C(=O)C2(C(F)(F)F)CC(F)(F)C2)C2CC2)CC=CCCCCNC(=O)[C@H](Cc2cc(Cl)ccc2Oc2ncccn2)N(C)C1=O` [Example 152], the IC50 in test [1] was found to be 1.02 µM; in test [2], 0.02 µM; in test [3], 1.9 µM. Further, the GI50 in test [4] was found to be 0.5 µM; in test [5], 0.45 µM.
Regarding `CC(C)C[C@@H]1NC(=O)[C@@H](N(C)C(=O)[C@@H](NC(=O)[C@@H]2C[C@@H](F)CN2C(=O)C2(C(F)(F)F)CC(F)(F)C2)C2CC2)CC=CCCCCN(C)C(=O)[C@H](Cc2cc(Cl)ccc2Oc2ncccn2)N(C)C1=O` [Example 153], the results for the IC50 in test [1], in test [2] and in test [3] were 0.47 µM, 0.02 µM and 1 µM, respectively. For the same compound, the GI50 in test [4] was found to be 0.11 µM; in test [5] it was 0.14 µM.
With `CC(C)C[C@@H]1NC(=O)[C@@H](N(C)C(=O)[C@@H](NC(=O)[C@@H]2C[C@@H](F)CN2C(=O)C2(C(F)(F)F)CC(F)(F)C2)C2CC2)CCCCCCCNC(=O)[C@H](Cc2cc(Cl)ccc2Oc2ncccn2)N(C)C1=O` [Example 154] ({cBuCO(3,3-F2-1-CF3)}-[Pro(trans-4-F)][Gly(cPr)][NMe(hhhLys)]L[NMePhe(5-Cl,2-O(2-Pym))]; lactam 3-C), the IC50 in test [1] was determined as 0.15 µM; in test [2], 0.02 µM; in test [3] it was 0.48 µM. The GI50 in test [4] and in test [5] was 0.02 µM throughout.
Regarding `CC(C)C[C@@H]1NC(=O)[C@@H](N(C)C(=O)[C@@H](NC(=O)[C@@H]2C[C@@H](F)CN2C(=O)C2(C(F)(F)F)CC(F)(F)C2)C2CC2)CCCCCCCN(C)C(=O)[C@H](Cc2cc(Cl)ccc2Oc2ncccn2)N(C)C1=O` [Example 155] ({cBuCO(3,3-F2-1-CF3)}-[Pro(trans-4-F)][Gly(cPr)][NMehhhLys(Me)]L[NMePhe(5-Cl,2-O(2-Pym))]; lactam 3-C), the IC50 in test [1] was 0.1 µM; in test [2] it was 0.02 µM; in test [3], 0.41 µM. Moreover, the GI50 is 0.01 µM in test [4] and 0.02 µM in test [5].
As to `CC(C)C[C@@H]1NC(=O)[C@@H](N(C)C(=O)[C@@H](NC(=O)[C@@H]2C[C@@H](F)CN2C(=O)C2(C(F)(F)F)CCC2)C2CC2)CC=CCCCCN(C)C(=O)[C@H](Cc2cc(Cl)ccc2Oc2ncccn2)N(C)C1=O` [Example 157], the IC50 in test [1] was 0.36 µM; in test [2], 0.02 µM; in test [3], 0.41 µM. Moreover, the GI50 in test [4] was found to be 0.08 µM; in test [5] it was 0.14 µM.
As to `CC(C)C[C@@H]1NC(=O)[C@@H](N(C)C(=O)[C@@H](NC(=O)[C@@H]2C[C@@H](F)CN2C(=O)C2(C(F)(F)F)CCC2)C2CC2)CCCCCCCNC(=O)[C@H](Cc2cc(Cl)ccc2Oc2ncccn2)N(C)C1=O` [Example 158] ({Cyclobutanecarbonyl(1-CF3)}-[Pro(trans-4-F)][Gly(cPr)][NMe(hhhLys)]L[NMePhe(5-Cl,2-O(2-Pym))]; lactam 3-C), the IC50 worked out at 0.1 µM in test [1], 0.02 µM in test [2] and 0.21 µM in test [3]. Moreover, the GI50 in test [4] and in test [5] was 0.02 µM each time.
With `Cc1nnc(-c2ccc(Cl)cc2C[C@H]2C(=O)NCCCCCCC[C@H](N(C)C(=O)[C@@H](NC(=O)[C@@H]3C[C@@H](F)CN3C(=O)C3(C(F)(F)F)CCC3)C3CC3)C(=O)N[C@@H](CC(C)C)C(=O)N2C)o1` [Example 161] ({Cyclobutanecarbonyl(1-CF3)}-[Pro(trans-4-F)][Gly(cPr)][NMe(hhhLys)]L[X44]; lactam 3-C), the IC50 in test [1] came to 0.02 µM; in test [2] it was 0.02 µM; in test [3] it was 0.12 µM. Further, the GI50 in test [4] and in test [5] was 0.02 µM throughout.
As to `Cc1nnc(-c2ccc(Cl)cc2C[C@H]2C(=O)N(C)CCCCCCC[C@H](N(C)C(=O)[C@@H](NC(=O)[C@@H]3C[C@@H](F)CN3C(=O)C3(C(F)(F)F)CC(F)(F)C3)C3CC3)C(=O)N[C@@H](CC(C)C)C(=O)N2C)o1` [Example 162] ({cBuCO(3,3-F2-1-CF3)}-[Pro(trans-4-F)][Gly(cPr)][NMehhhLys(Me)]L[X44]; lactam 3-C), the IC50 in test [1] was found to be 0.02 µM; in test [2], 0.02 µM; in test [3] it was 0.22 µM. For the same compound, the GI50 in test [4] and in test [5] was 0.01 µM in each case.
With `Cc1nnc(-c2ccc(Cl)cc2C[C@H]2C(=O)N(C)CCCCCCC[C@H](N(C)C(=O)[C@@H](NC(=O)[C@@H]3C[C@@H](F)CN3C(=O)C3(C(F)(F)F)CCC3)C3CC3)C(=O)N[C@@H](CC(C)C)C(=O)N2C)o1` [Example 163] ({Cyclobutanecarbonyl(1-CF3)}-[Pro(trans-4-F)][Gly(cPr)][NMehhhLys(Me)]L[X44]; lactam 3-C), the results for the IC50 in test [1], in test [2] and in test [3] were 0.02 µM, 0.02 µM and 0.1 µM, respectively. Moreover, the GI50 in test [4] and in test [5] was 0.01 µM each time.
As for `CC(C)C[C@@H]1NC(=O)[C@@H](N(C)C(=O)[C@@H](NC(=O)[C@@H]2C[C@@H](F)CN2C(=O)C2(C(F)(F)F)CC(F)(F)C2)C2CC2)CCCCCCCN(C)C(=O)[C@H](Cc2cc(F)ccc2-c2cn(C)cn2)N(C)C1=O` [Example 164] ({cBuCO(3,3-F2-1-CF3)}-[Pro(trans-4-F)][Gly(cPr)][NMehhhLys(Me)]L[X207]; lactam 3-C), the IC50 in test [1] turned out to be 0.07 µM; in test [2], 0.02 µM; in test [3], 0.93 µM. The GI50 in test [4] and in test [5] was 0.03 µM in each case.
